Experiment [1] deals with AII receptor. Put plainly: in vivo: inhibitory effect on AII-caused pressor reaction in a spinal cord-broken rat. Particulars: dose which decreases 30 mm Hg of blood pressure after AII administration (100 ng/kg/min continuous iv). The method, then: The AII receptor-blocking activity of the compound of the present invention was measured based on its antagonistic effect (in vitro) on AII contraction of an excised rabbit aorta and its inhibitory effect (in vivo) on AII-caused pressor reaction in a spinal cord-broken rat. In vivo test: An in vivo test was carried out by inserting cannulae into an aorta and a vein of a spinal cord-broken rat under artificial respiration. […] Since a drug having AII receptor-blocking activity inhibits the AII-caused continuous blood pressure increase in a dose-dependent manner, the AII antagonistic function of the test drug was examined based on the decreasing width of blood pressure after administration of the test drug.

Experiment [2] has as its target T1, AII receptor (Oryctolagus cuniculus, UniProt P34976).
T1 construct: A portion of rabbit aorta was excised to prepare a spiral strip specimen; from tissue; host or cells: excised rabbit aorta, spiral strip
T1 sequence (P34976 1-359): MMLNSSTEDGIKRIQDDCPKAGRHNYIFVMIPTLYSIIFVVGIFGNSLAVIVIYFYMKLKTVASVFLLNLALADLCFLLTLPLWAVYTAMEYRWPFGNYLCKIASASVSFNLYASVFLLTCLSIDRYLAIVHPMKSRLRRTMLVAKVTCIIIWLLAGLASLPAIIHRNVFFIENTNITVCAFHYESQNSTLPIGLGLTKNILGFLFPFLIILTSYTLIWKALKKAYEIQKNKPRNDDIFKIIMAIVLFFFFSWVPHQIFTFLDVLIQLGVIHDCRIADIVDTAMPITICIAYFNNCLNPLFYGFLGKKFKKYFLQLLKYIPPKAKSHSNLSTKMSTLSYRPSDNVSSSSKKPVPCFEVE
Nature of the experiment: in vitro: antagonistic effect on AII contraction of an excised rabbit aorta (spiral strip). To be noted: for Kb: negative log of concentration required to shift AII dose-response curve to two times higher concentration, read-out: in vitro (pA2 value) (converted); for IC50: negative log of concentration required to inhibit 50% of the maximum AII contraction, read-out: in vitro (pD2 ' value) (converted). Type of experiment: cell-based. The method, then: The AII receptor-blocking activity of the compound of the present invention was measured based on its antagonistic effect (in vitro) on AII contraction of an excised rabbit aorta and its inhibitory effect (in vivo) on AII-caused pressor reaction in a spinal cord-broken rat.
A portion of rabbit aorta was excised to prepare a spiral strip specimen which was subsequently hung in Krebs-Hensseleit solution. This spiral strip specimen causes a dose-dependent contraction when AII is added to the Krebs-Hensseleit solution. Since a drug having AII receptor-blocking activity causes shifting of the dose-response curve of the AII-based contraction to the high concentration side or reduces maximum contraction by AII, a shifted width of the dose-response curve before and after the addition of each test drug or a maximum contraction inhibiting ratio was calculated.

Structures are written as SMILES. Structures can show the parent of a compound that is named as a salt.

For `CCCCc1nc(Cl)c(CO)n1Cc1ccc(-c2ccccc2-c2nn[nH]n2)cc1` [Dup 753, reference compound], in experiment [1], the “in vivo (IC30 mmHg (mg/kg, iv))” value amounted to 0.1 mg/kg.
`CCc1nc2c(CC)cn(Cc3ccc(-c4ccccc4-c4nnn[nH]4)cc3)n2n1` [Example 52, 2,7-diethyl-5-[[2'-(tetrazol-5-yl)biphenyl-4-yl]methyl]-5H-pyrazolo[1,5-b][1,2,4]triazole]: the “in vivo (IC30 mmHg (mg/kg, iv))” value in experiment [1] is reported as 0.025 mg/kg. In experiment [2], the Kb was 2.24 nM.
As for `CCc1cn(Cc2ccc(-c3ccccc3-c3nnn[nH]3)cc2)n2nc(C)nc12` [Example 53, 7-ethyl-2-methyl-5-[[2'-(tetrazol-5-yl)biphenyl-4-yl]methyl]-5H-pyrazolo[1,5-b][1,2,4]triazole], in experiment [1], the “in vivo (IC30 mmHg (mg/kg, iv))” value is reported as 0.01 mg/kg. The Kb in experiment [2] is 3.16 nM.
In the case of `CCc1nc2c(C(C)C)cn(Cc3ccc(-c4ccccc4-c4nnn[nH]4)cc3)n2n1` [Example 57, 2-ethyl-7-isopropyl-5-[[2'-(tetrazol-5-yl)biphenyl-4-yl]methyl]-5H-pyrazolo[1,5-b][1,2,4]triazole], the “in vivo (IC30 mmHg (mg/kg, iv))” value in experiment [1] stood at 0.04 mg/kg. For the same compound, the Kb in experiment [2] was 3.02 nM.
On the same counts, the results for `CCc1nc2c(CC)c(COC)n(Cc3ccc(-c4ccccc4-c4nnn[nH]4)cc3)n2n1` [Example 95, 2,7-diethyl-6-methoxymethyl-5-[[2'-(tetrazol-5-yl)biphenyl-4-yl]methyl]-5H-pyrazolo[1,5-b][1,2,4]triazole] are 0.06 mg/kg and 1.41 nM.
Turning to `CCc1nc2c(CC)c(C=O)n(Cc3ccc(-c4ccccc4-c4nn[nH]n4)cc3)n2n1` [Example 96, 2,7-diethyl-5-[[2'-(tetrazol-5-yl)biphenyl-4-yl]methyl]-5H-pyrazolo[1,5-b][1,2,4]triazole-6-carboxyaldehyde], in experiment [1], the “in vivo (IC30 mmHg (mg/kg, iv))” value is on record as 0.02 mg/kg. Moreover, the Kb in experiment [2] was 0.692 nM.
`CCc1nc2c(CC)c(CO)n(Cc3ccc(-c4ccccc4-c4nn[nH]n4)cc3)n2n1` [Example 98]: the “in vivo (IC30 mmHg (mg/kg, iv))” value in experiment [1] was found to be 0.02 mg/kg. The Kb in experiment [2] is 0.955 nM.
For the compound `CCc1nc2c(CC)c(C(=O)O)n(Cc3ccc(-c4ccccc4-c4nn[nH]n4)cc3)n2n1` [Example 99, 2,7-diethyl-5-[[2'-(tetrazol-5-yl)biphenyl-4-yl]methyl]-5H-pyrazolo[1,5-b][1,2,4]'triazole-6-carbonic acid], in experiment [2], the IC50 is 0.49 nM.
For `CCc1nc2c(CC)cn(Cc3ccc(-c4ccccc4-c4nn[nH]n4)cc3)n2n1` [Example 100, 2,7-diethyl-5-[[2'-(tetrazol-5-yl)biphenyl-4-yl]methyl]-5H-pyrazolo[1,5-b][1,2,4]triazole potassium salt], the Kb in experiment [2] was 1.55 nM.
With `CCOC(=O)c1c(CC)c2nc(CC)nn2n1Cc1ccc(-c2ccccc2-c2nnn[nH]2)cc1` [Example 101, ethyl 2,7-diethyl-5-[[2'-(tetrazol-5-yl)biphenyl-4-yl]methyl]-5H-pyrazolo[1,5-b][1,2,4] triazole-6-carboxylate], the Kb in experiment [2] was 0.562 nM.
In the case of `CCc1nc2c(CC)c(C(=O)OC)n(Cc3ccc(-c4ccccc4-c4nn[nH]n4)cc3)n2n1` [Example 102, methyl 2,7-diethyl-5-[[2'-(tetrazol-5-yl)biphenyl-4-yl]methyl]-5H-pyrazolo[1,5-b][1,2,4]triazole-6-carboxylate sodium salt], in experiment [2], the Kb is 0.724 nM.
In the case of `CCOC(=O)OC(C)OC(=O)c1c(CC)c2nc(CC)nn2n1Cc1ccc(-c2ccccc2-c2nnn[nH]2)cc1` (stereo not drawn) [Example 105, 1-ethoxycarbonyloxyethyl 2,7-diethyl-5-[[2'-(tetrazol-5-yl)biphenyl-4-yl]methyl]-5H-pyrazolo[1,5-b][1,2,4]triazole-6-carboxylate], the IC50 in experiment [2] is 0.933 nM.

The record behind these values is patent US5475114A, “Pyrazolotriazole derivatives” (Yamanouchi Pharmaceutical Co., Ltd., priority 1991, dated 1995).
